According to PubChem BioAssay (NCI):
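All cell lines were grown in 96-well plates and treated with compound for 48 hours. GI50 is the concentration that inhibits growth by half. TGI: total growth inhibition.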

Experiments:
Assay in all cases: NCI tumour cell line growth inhibition, 48 h
[1] = system: CAKI-1 renal
[2] = system: SN12C renal
[3] = system: CCRF-CEM leukemia
[4] = system: SF-295 CNS
[5] = system: UO-31 renal
[6] = system: NCI-H460 lung
[7] = system: K-562 leukemia
[8] = system: SK-MEL-28 melanoma
[9] = system: HL-60(TB) leukemia
[10] = system: A498 renal

| Structure (SMILES) | GI50 [1] [µM] | TGI [1] [µM] | GI50 [2] [µM] | TGI [2] [µM] | GI50 [3] [µM] | TGI [3] [µM] | GI50 [4] [µM] | TGI [4] [µM] | GI50 [5] [µM] | TGI [5] [µM] | GI50 [6] [µM] | TGI [6] [µM] | GI50 [7] [µM] | TGI [7] [µM] | GI50 [8] [µM] | TGI [8] [µM] | GI50 [9] [µM] | TGI [9] [µM] | GI50 [10] [µM] | TGI [10] [µM] |
| --- | --- | --- | --- | --- | --- | --- | --- | --- | --- | --- | --- | --- | --- | --- | --- | --- | --- | --- | --- | --- |
| CCCCCCCCCCCCCCCCCCOc1ccccc1CC(=O)OCC[N+]1(C)CCCCC1 | 1.74 | 4.87 | 2.07 | 4.93 | 1.96 | 4.63 | 2.93 | 9.62 | 4.14 | 19.7 | 2.34 | 5.43 | 2.83 | 10.1 | 2.51 | 6.33 | 1.92 | 4.36 | 2.53 | 9.71 |
| CN(CCCCCl)P(=O)(OCc1ccc([N+](=O)[O-])o1)OC[C@H]1O[C@@H](n2cc(F)c(=O)[nH]c2=O)C[C@@H]1O (stereo not given in full) |  |  |  | 9.07 |  | 20.7 |  | 3.48 |  | > 100 |  | 45.5 |  | > 59.4 |  | > 61.3 |  | > 23.6 |  | 0.0982 |
| CN1CCc2[nH]c3ccccc3c2C1 |  | > 100 |  | > 100 |  | > 100 |  | > 100 |  | > 100 |  | > 100 |  | > 100 |  | > 100 |  | > 100 |  | > 100 |
| CC(CCN)(CCN)[N+](=O)[O-] |  | > 100 |  | > 100 |  | > 100 |  | > 100 |  | > 100 |  | > 100 |  | > 100 |  | > 100 |  | > 100 |  | > 100 |
| NN(CC(=O)O)CC(=O)O |  | > 100 |  | > 100 |  | > 100 |  | > 100 |  | > 100 |  | > 100 |  | > 100 |  | > 100 |  | > 100 |  | > 100 |
| O=C([O-])C[n+]1ccccc1 |  | > 100 |  | > 100 |  | > 100 |  | > 100 |  | > 100 |  | > 100 |  | > 100 |  | > 100 |  | > 100 |  | > 100 |
| C[C@]12C=CC(=O)C=C1CC[C@@H]1[C@@H]2CC[C@]2(C)OC(=O)CC[C@@H]12 |  | > 404 |  | > 500 |  | > 500 |  | > 500 |  | > 500 |  | > 500 |  | > 500 |  | > 500 |  | 476 |  | 496 |
| COc1cc2c(c(O)c1OC)-c1c(cc(OC)c(OC)c1OC)CC(C)C(C)C2 (stereo not given) |  | > 100 |  | > 100 |  | 62.1 |  | > 100 |  | > 100 |  | > 100 |  | > 100 |  | > 100 |  | 55.2 |  | > 100 |
| Nc1ncnc2c1ncn2C=C=CCO |  | > 100 |  | > 100 |  | > 100 |  | > 100 |  | > 100 |  | > 100 |  | > 100 |  | > 100 |  |  |  | > 100 |
| COCCOC(=O)c1c(C)n([O-])c2cc(Cl)c(Cl)cc2[n+]1=O |  | 45.4 |  | 70 |  | 64.7 |  | 84.2 |  | 10.5 |  | 25.9 |  | 34.7 |  | 61.7 |  | 32 |  | 61.9 |
| C=C1c2ccccc2C(=O)c2c1c1c(C(=O)OC)c(O)ccc1n2Cc1ccccc1 |  | 1.71 |  | 0.939 |  | 0.74 |  | 1.99 |  | 1.74 |  | 2.34 |  | 1.55 |  | 1.07 |  | 0.857 |  | 2.27 |
| O=C(Nc1ccc(Cl)cc1)c1cc2cc(N=Nc3ccccc3Cl)ccc2oc1=O |  | > 100 |  | 44.7 |  | 5.38 |  | 91.9 |  | 39.3 |  | > 100 |  | 23.6 |  | 55.7 |  | 10.3 |  |  |
| Nc1ncnc2nc[nH]c12 | 58.9 | > 250 |  | > 237 | 32.4 | > 250 |  | > 250 |  | > 250 | 21.3 | > 250 |  | > 250 |  | > 250 |  | 228 |  | 11.1 |
